From patent publication USRE37886E1, “1-(1,2-Disubstituted piperidinyl)-4-substituted piperazine derivatives” (Janssen Pharmaceuticals, N.V., priority 1995, dated 2002)

Legend:
[1] = system: substance P induced plasma extravasation; assay: Antagonism of substance P induced plasma extravasation in guinea-pigs; type: in vivo; conditions: lowest active dose, female guinea-pigs; for LAD nose: compound 1 hour prior to substance P (2 mg/kg, femoral artery), blue colouring of nose 10 minutes after challenge; for LAD conjunctiva / LAD forepaws / LAD trachea / LAD urinary bladder: compound 1 hour prior to substance P; for LAD conjunctiva: blue colouring of conjunctiva 10 minutes after challenge; for LAD forepaws: blue colouring of forepaws 10 minutes after challenge; for LAD trachea: blue colouring of trachea 30 minutes after challenge; for LAD urinary bladder: blue colouring of urinary bladder 30 minutes after challenge
How it was run: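 Female guinea-pigs dosed with compound 1 hour before femoral-artery substance P (2 mg/kg) plus Evans Blue (30 mg/kg). Blue colouring of nose, forepaws and conjunctiva scored at 10 minutes, trachea and bladder at 30 minutes; value is lowest active dose (mg/kg).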

[2] = system: substance-P induced relaxation of the pig coronary arteries; assay: Antagonism of substance-P induced relaxation of the pig coronary arteries; type: cell-based; conditions: concentration at which 50% of the response to 10^−9 M substance P was inhibited, 30 minutes incubation, prostaglandin F2a precontracted segments
How it was run: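 Inverted pig coronary artery segments (endothelium outside) in Krebs-Henseleit, 37 °C, O2/CO2 95/5, precontracted with prostaglandin F2a (10^−5 M); substance P 3×10^−10 and 10^−9 M added cumulatively. Compound incubated 30 min before repeat challenge; IC50 is concentration inhibiting 50% of the relaxation to 10^−9 M substance P.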

Row | melting point [°C] | IC50 ([2]; Sus scrofa, 0.5 h) [nM] | Compound | LAD nose [1] [mg/kg] | LAD conjunctiva [1] [mg/kg] | LAD forepaws [1] [mg/kg] | LAD trachea [1] [mg/kg] | LAD urinary bladder [1] [mg/kg] | IC50 [2] [nM]
1 | 143.8 |  | O=C(c1cc(C(F)(F)F)cc(C(F)(F)F)c1)N1CC[C@H](N2CCN(Cc3ccccc3)CC2)C[C@@H]1Cc1ccccc1 (racemic) [Compound 16, (±)-cis-1-[3,5-bis(trifluoromethyl)benzoyl]-2-(phenylmethyl)-4-[4-(phenylmethyl)-1-piperazinyl]piperidine] | 40.0 | 40.0 | 40.0 | >40 | >40 | 
2 | 240.3 | 1.68 | O=C(c1cc(C(F)(F)F)cc(C(F)(F)F)c1)N1CC[C@@H](N2CCN(Cc3ccccc3)CC2)C[C@@H]1Cc1ccccc1 (racemic) [Compound 17, (±)-trans-1-[3,5-bis(trifluoromethyl)benzoyl]-2-(phenylmethyl)-4-[4-(phenylmethyl)-1-piperazinyl]piperidine (E)-2-butenedioate(1:2)] | 10.0 | 10.0 | 10.0 | >40 | 10.0 | 
3 | 88.1 | 5.63 | Cc1cc(C)cc(OC(=O)C(c2ccccc2)N2CCN([C@H]3CCN(C(=O)c4cc(C(F)(F)F)cc(C(F)(F)F)c4)[C@@H](Cc4ccccc4)C3)CC2)c1 (mixture of isomers) [Compound 43, (±)-3,5-dimethylphenyl cis-4-[1-[3,5-bis(trifluoromethyl)benzoyl]-2-(phenylmethyl)-4-piperidinyl]-α-phenyl-1-piperazineacetate] |  |  |  |  |  | 
4 |  |  | O=C(CN1CCN(C2CCN(C(=O)c3cc(C(F)(F)F)cc(C(F)(F)F)c3)C(Cc3ccccc3)C2)CC1)NC1(c2ccccc2)CCCCC1 (stereo not drawn) [Compound 49] | 2.50 | 2.50 | 2.50 | 10.0 | >40 | 0.59
5 |  |  | Cc1cc(C)cc(NC(=O)CN2CCN(C3CCN(C(=O)c4cc(C(F)(F)F)cc(C(F)(F)F)c4)C(Cc4ccccc4)C3)CC2)c1 (stereo not drawn) [Compound 50] | 10.0 | 10.0 | 10.0 | 10.0 | >40 | 2.43
6 |  |  | Cc1cccc(C)c1NC(=O)CN1CCN(C2CCN(C(=O)c3cc(C(F)(F)F)cc(C(F)(F)F)c3)C(Cc3ccccc3)C2)CC1 (stereo not drawn) [Compound 53] | 1.25 | 1.25 | 1.25 | 2.50 | 2.50 | 0.35
7 |  |  | (+)-(B)-trans-4-[1-[3,5-bis(trifluoromethyl)benzoyl]-2-(phenylmethyl)-4-piperidinyl]-N-(2,6-dimethylphenyl)-1- piperazine acetamide [Compound 27] | 0.63 | 0.63 | 0.63 | 0.63 | 0.63 | 0.13
8 |  |  | (−)-(A)-trans-4-[1-[3,5-bis(trifluoromethyl) benzoyl]-2-(phenylmethyl)-4-piperidinyl]-N-(2,6-dimethylphenyl)-1-piperazine acetamide [Compound 26] | 10.0 | 20.0 | 10.0 | 40.0 | 20.0 | 2.75
